Our source for the Kd values is ChEMBL document CHEMBL1131949, “Stereoselective synthesis and receptor activity of conformationally defined retinoid X receptor selective ligands” (Bioorg Med Chem Lett, 1999).

Molecules are shown by their SMILES.

In test [1] the target is T1, Retinoic acid receptor RXR-gamma (Homo sapiens, UniProt P48443).
T1 sequence (P48443 whole entry): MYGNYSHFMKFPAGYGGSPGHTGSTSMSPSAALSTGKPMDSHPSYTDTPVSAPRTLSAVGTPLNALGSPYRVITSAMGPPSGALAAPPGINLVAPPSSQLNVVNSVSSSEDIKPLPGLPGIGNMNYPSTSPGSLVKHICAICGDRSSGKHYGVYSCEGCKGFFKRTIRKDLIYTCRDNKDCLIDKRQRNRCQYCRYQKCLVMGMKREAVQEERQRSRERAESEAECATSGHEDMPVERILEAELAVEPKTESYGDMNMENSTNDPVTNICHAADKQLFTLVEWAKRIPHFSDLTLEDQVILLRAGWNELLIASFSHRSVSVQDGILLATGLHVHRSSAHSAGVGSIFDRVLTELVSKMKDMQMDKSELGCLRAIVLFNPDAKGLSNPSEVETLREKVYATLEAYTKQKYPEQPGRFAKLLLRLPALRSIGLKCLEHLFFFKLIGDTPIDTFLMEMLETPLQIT
The test is described as follows: Inhibition of [3H]-9-cis RA binding to Retinoid X receptor RXR gamma.

In test [2] the target is T2, Retinoic acid receptor RXR-beta (Homo sapiens, UniProt P28702).
T2 sequence (P28702 whole entry): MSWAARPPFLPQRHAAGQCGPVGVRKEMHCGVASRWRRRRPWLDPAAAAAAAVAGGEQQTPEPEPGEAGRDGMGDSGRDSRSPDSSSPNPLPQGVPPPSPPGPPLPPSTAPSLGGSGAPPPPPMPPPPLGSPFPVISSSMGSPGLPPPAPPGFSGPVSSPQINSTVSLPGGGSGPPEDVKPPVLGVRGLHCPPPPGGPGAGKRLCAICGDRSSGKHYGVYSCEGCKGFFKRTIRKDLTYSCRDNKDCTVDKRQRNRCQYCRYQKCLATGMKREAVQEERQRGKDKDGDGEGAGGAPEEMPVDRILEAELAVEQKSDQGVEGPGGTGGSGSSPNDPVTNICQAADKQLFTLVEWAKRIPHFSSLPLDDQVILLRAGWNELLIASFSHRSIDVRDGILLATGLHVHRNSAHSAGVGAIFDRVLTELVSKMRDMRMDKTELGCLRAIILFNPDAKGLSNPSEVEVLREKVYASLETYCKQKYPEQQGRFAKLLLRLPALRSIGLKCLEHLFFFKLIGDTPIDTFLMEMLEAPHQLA
In words: Inhibition of [3H]-9-cis RA binding to Retinoid X receptor RXR beta.

With `CC1=C(/C=C/c2ccccc2/C=C/C(C)=C/C(=O)O)C(C)(C)CCC1`, the Kd in test [1] was determined as 35 nM; in test [2], 53 nM.
For the compound `CC1=C(/C=C/c2occc2/C=C/C(C)=C/C(=O)O)C(C)(C)CCC1`, the dissociation constant Kd in test [1] was 14 nM; in test [2], 15 nM.
